Results from ChEMBL document CHEMBL3526158, “Contributions of arylacetamide deacetylase and carboxylesterase 2 to flutamide hydrolysis in human liver” (Drug Metab Dispos, 2012).

Columns and labels:
Cocaine esterase [1] = target: T1, Cocaine esterase (Homo sapiens, UniProt O00748); experiment: Drug metabolism assessed as human recombinant CES2-mediated compound hydrolysis at 2 uM; type: ADME; conditions: recombinant enzyme
T1 sequence (O00748 whole entry): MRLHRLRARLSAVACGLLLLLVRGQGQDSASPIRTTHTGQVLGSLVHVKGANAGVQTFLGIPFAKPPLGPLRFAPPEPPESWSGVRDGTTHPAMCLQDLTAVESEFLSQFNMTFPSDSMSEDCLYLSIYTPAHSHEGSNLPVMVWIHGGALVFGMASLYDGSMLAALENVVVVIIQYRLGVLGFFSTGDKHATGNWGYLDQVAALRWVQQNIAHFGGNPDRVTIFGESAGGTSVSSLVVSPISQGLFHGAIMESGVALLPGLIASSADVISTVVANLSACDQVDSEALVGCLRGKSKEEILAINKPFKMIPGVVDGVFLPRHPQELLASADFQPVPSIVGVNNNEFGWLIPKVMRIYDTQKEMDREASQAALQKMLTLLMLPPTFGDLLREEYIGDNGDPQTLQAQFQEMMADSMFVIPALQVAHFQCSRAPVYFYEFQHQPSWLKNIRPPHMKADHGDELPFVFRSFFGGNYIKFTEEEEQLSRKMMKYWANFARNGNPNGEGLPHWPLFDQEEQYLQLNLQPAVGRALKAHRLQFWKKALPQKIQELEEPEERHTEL

[2] = target: T2, Arylacetamide deacetylase (Homo sapiens, UniProt P22760); experiment: Drug metabolism assessed as human recombinant AADAC-mediated compound hydrolysis expressed in SF21 cells at 50 uM; type: ADME; conditions: sf21, 50 µM
T2 sequence (P22760 whole entry): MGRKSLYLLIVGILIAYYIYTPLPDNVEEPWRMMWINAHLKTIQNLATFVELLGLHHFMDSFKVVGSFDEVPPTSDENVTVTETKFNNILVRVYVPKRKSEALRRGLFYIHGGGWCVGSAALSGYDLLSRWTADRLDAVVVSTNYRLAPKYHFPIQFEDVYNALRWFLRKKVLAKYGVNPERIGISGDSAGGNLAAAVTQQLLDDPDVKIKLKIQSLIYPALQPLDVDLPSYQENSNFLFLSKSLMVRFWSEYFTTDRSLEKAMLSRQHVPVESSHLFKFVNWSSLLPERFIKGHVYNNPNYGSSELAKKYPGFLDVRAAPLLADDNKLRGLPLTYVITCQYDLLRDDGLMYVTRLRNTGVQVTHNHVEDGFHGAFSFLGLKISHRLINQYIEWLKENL

Cocaine esterase [3] = target: T1, Cocaine esterase; experiment: Intrinsic clearance assessed as ratio of Vmax to Km for human recombinant CES2; type: ADME; conditions: recombinant enzyme
Cocaine esterase [4] = target: T1, Cocaine esterase; experiment: Drug metabolism assessed as loperamide-mediated inhibition of CES2-mediated compound hydrolysis in human liver cytosol at 5 uM relative to control; type: ADME, tissue-based; design: scale not given: the % may be the effect or the level left
CES2 (cocaine esterase) [5] = target: T3, CES2 (cocaine esterase) (Homo sapiens, UniProt O00748); experiment: Drug metabolism assessed as loperamide-mediated inhibition of human recombinant CES2-mediated compound hydrolysis measured as enzyme activity at 5 uM relative to control; type: ADME; design: scale not given: the % may be the effect or the level left; conditions: recombinant CES2, with loperamide (concentration not clearly stated), read-out: Activity
T3 sequence (O00748 whole entry): T1 sequence (O00748 whole entry)

[6] = target: T4, AADAC (arylacetamide deacetylase) (Homo sapiens, UniProt P22760); experiment: Drug metabolism assessed as AADAC-mediated compound hydrolysis in human liver homogenates at 50 uM; type: ADME, tissue-based; conditions: read-out: Drug metabolism
T4 sequence (P22760 whole entry): T2 sequence (P22760 whole entry)

Cocaine esterase [7] = target: T1, Cocaine esterase; experiment: Inhibition of human recombinant CES2 assessed as compound hydrolysis
[8] = target: T2, Arylacetamide deacetylase; experiment: Drug metabolism assessed as human recombinant AADAC-mediated compound hydrolysis at 200 uM; type: ADME
CES2 (cocaine esterase) [9] = target: T3, CES2 (cocaine esterase); experiment: Drug metabolism assessed as CES2-mediated compound hydrolysis in human liver homogenates at 50 uM; type: ADME, tissue-based; conditions: read-out: Drug metabolism
Cocaine esterase [10] = target: T1, Cocaine esterase; experiment: Drug metabolism assessed as human recombinant CES2-mediated compound hydrolysis at 5 uM; type: ADME; conditions: recombinant enzyme
[11] = target: T4, AADAC (arylacetamide deacetylase); experiment: Drug metabolism assessed as AADAC-mediated compound hydrolysis in human liver homogenates at 5 uM; type: ADME, tissue-based; conditions: read-out: Drug metabolism
[12] = target: T4, AADAC (arylacetamide deacetylase); experiment: Drug metabolism assessed as loperamide-mediated inhibition of human recombinant AADAC-mediated compound hydrolysis expressed in SF21 cells measured as enzyme activity at 5 uM relative to control; type: ADME; design: scale not given: the % may be the effect or the level left; conditions: with loperamide (concentration not clearly stated), read-out: Activity
CES2 (cocaine esterase) [13] = target: T3, CES2 (cocaine esterase); experiment: Drug metabolism assessed as CES2-mediated compound hydrolysis in human liver homogenates at 5 uM; type: ADME, tissue-based; conditions: read-out: Drug metabolism
[14] = target: T2, Arylacetamide deacetylase; experiment: Drug metabolism assessed as human recombinant AADAC-mediated compound hydrolysis at 5 uM; type: ADME
Liver carboxylesterase 1 = target: T5, Liver carboxylesterase 1 (Homo sapiens, UniProt P23141); experiment: Drug metabolism assessed as human recombinant CES1-mediated compound hydrolysis at 5 uM; type: ADME; conditions: recombinant enzyme
T5 sequence (P23141 whole entry): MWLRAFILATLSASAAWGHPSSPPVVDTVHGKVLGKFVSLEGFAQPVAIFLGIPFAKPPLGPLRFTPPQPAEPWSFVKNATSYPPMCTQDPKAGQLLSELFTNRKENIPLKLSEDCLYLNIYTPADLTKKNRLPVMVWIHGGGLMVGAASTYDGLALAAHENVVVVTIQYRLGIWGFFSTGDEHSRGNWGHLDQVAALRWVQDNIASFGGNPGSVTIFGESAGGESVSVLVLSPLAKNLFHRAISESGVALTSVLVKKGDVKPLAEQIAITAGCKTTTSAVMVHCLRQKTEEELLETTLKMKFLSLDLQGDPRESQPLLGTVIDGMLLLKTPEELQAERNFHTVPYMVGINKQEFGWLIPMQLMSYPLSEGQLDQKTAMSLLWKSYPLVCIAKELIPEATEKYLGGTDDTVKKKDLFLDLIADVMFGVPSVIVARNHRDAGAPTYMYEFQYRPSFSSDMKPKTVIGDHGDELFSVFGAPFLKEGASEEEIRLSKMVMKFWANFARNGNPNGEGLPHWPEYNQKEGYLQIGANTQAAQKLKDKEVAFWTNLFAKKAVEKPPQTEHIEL

Cocaine esterase [15] = target: T1, Cocaine esterase; experiment: Drug metabolism assessed as CES2-mediated compound hydrolysis in human liver homogenates at 5 to 200 uM; type: ADME, tissue-based; conditions: tissue homogenate
Cocaine esterase [16] = target: T1, Cocaine esterase; experiment: Drug metabolism assessed as loperamide-mediated inhibition of CES2-mediated compound hydrolysis in human liver microsomes at 5 uM relative to control; type: ADME; design: scale not given: the % may be the effect or the level left
[17] = target: T4, AADAC (arylacetamide deacetylase); experiment: Drug metabolism assessed as AADAC-mediated compound hydrolysis in human liver homogenates at 5 to 200 uM; type: ADME, tissue-based; conditions: read-out: Drug metabolism
[18] = target: T4, AADAC (arylacetamide deacetylase); experiment: Drug metabolism assessed as AADAC-mediated compound hydrolysis in human liver homogenates at 200 uM; type: ADME, tissue-based; conditions: read-out: Drug metabolism
CES2 (cocaine esterase) [19] = target: T3, CES2 (cocaine esterase); experiment: Drug metabolism assessed as CES2-mediated compound hydrolysis in human liver homogenates at 200 uM; type: ADME, tissue-based; conditions: read-out: Drug metabolism
Cocaine esterase [20] = target: T1, Cocaine esterase; experiment: Drug metabolism assessed as human recombinant CES2-mediated compound hydrolysis at 50 uM; type: ADME; conditions: recombinant enzyme
Cocaine esterase [21] = target: T1, Cocaine esterase; experiment: Drug metabolism assessed as loperamide-mediated inhibition of CES2-mediated compound hydrolysis in human jejunum microsomes at 5 uM relative to control; type: ADME; design: scale not given: the % may be the effect or the level left
Cocaine esterase [22] = target: T1, Cocaine esterase; experiment: Drug metabolism assessed as human recombinant CES2-mediated compound hydrolysis at 200 uM; type: ADME; conditions: recombinant enzyme

## CO[C@H]1/C=C/O[C@@]2(C)Oc3c(C)c(O)c4c(O)c(c(/C=N/N5CCN(C)CC5)c(O)c4c3C2=O)NC(=O)/C(C)=C\C=C\[C@H](C)[C@H](O)[C@@H](C)[C@@H](O)[C@@H](C)[C@H](OC(C)=O)[C@@H]1C [RIFAMPIN]
Cocaine esterase [1]
  Drug metabolism: 2.99 pmol/min/mg
[2]
  Drug metabolism: 41.77 pmol/min/mg

## CC(C)C(=O)Nc1ccc([N+](=O)[O-])c(C(F)(F)F)c1 [FLUTAMIDE]
Cocaine esterase [3]
  Ratio: 4.2 µL/min/mg
Cocaine esterase [4]
  Activity: 15.7%
CES2 (cocaine esterase) [5]
  activity at 5 µM: 7.7%
[6]
  metabolised at 50 µM: 53%
Cocaine esterase [7]
  Ki: 2300 nM
[8]
  Drug metabolism: 389 pmol/min/mg
CES2 (cocaine esterase) [9]
  metabolised at 50 µM: 47%
Cocaine esterase [10]
  Drug metabolism: 16 pmol/min/mg
[11]
  metabolised at 5 µM: 11.7%
[12]
  activity at 5 µM: 74.7%
CES2 (cocaine esterase) [13]
  metabolised at 5 µM: 88.3%
[14]
  Drug metabolism: 3.1 pmol/min/mg
[2]
  Drug metabolism: 87.6 pmol/min/mg
Liver carboxylesterase 1
  Drug metabolism: metabolite_not_detected
Cocaine esterase [15]
  Drug metabolism: 170.4%
Cocaine esterase [16]
  Activity: 22.9%
[17]
  metabolised at up to 200 µM: 79.6%
[18]
  metabolised at 200 µM: 89.4%
CES2 (cocaine esterase) [19]
  metabolised at 200 µM: 10.6%
Cocaine esterase [20]
  Drug metabolism: 38.9 pmol/min/mg
Cocaine esterase [21]
  Activity: 18.6%
Cocaine esterase [22]
  Drug metabolism: 13.5 pmol/min/mg
